Measurements reported in patent US11065277B2, “Method of ameliorating side effects of sickle cell disease treatments” (ALBERT EINSTEIN COLLEGE OF MEDICINE, priority 2015, dated 2021).
Entries after “also recorded” stand apart in the source; their conditions may differ.

Legend:
BERK low gamma [1] = experiment: Systemic vaso-occlusion and systemic flow in low gamma BERK; assay type: in vivo, mouse
Description: (§1) Just as with supra-perfusion therapy, a sickle therapy induced toxicity is apparent in the quercetin-based antioxidant therapy of sickle cell disease. […] However, this nearly complete clearance of the vaso-occlusion appears to induces a toxicity to such treated low gamma BERK, as the animal die after six to eight hrs. after infusing quercetin. Accordingly, it was concluded that antisickling, or antioxidant or antiadhesive therapies, need to be combined with anti-anemia therapy to protect the brain tissues from hypoxic effects as the systemic perfusion is improved as vasoconstrictive effects are reduced.
(§2) A lower dosage of the therapeutic that only marginally reduces the severity of the disease as reflected by systemic vaso-occlusion can still moderate the severity of the disease to some degree without creating an oxygen debt in the brain (i.e. the pathology of the disease as reflected by CBF and BOLD, in an organ specific manner).

BERK mice [2] = experiment: Cerebral blood flow (CBF) after treatment; assay type: in vivo, mouse
BERK mice [3] = experiment: BOLD-RHO (BOLD MRI response to hyperoxia, gray matter); assay type: in vivo, mouse
Protocol: BL=baseline, PI=post injection. […] Using BOLD MRI imaging (which is sensitive to the tissue concentration of deoxy-Hb) the sufficiency of oxygenation of cerebral tissues was measured by assessing the change in deoxy-Hb which occurs with administration of a short inhalation bolus of 100% O2.

BERK low gamma [4] = conditions: mouse, in vivo, ip
Description: as §1, §2

[5] = Plasma level after 10% top load infusion; assay type: in vivo, mouse; conditions: low gamma BERK mice, infusion of 6 gm % solution at 10% top load
Description: Infusion of a 6 gm % solution EAF P3K6 Hb to a low gamma BERK mice at 10% top load results in a presence of 0.3 gm/dl EAF P3K6 Hb in the plasma, the HbS in the RBC being 8 gm/dl.

BERK mice [6] = experiment: Intravital microscopy of the systemic circulation (shear rate, volumetric flow rate, leukocyte adhesion, sickling); assay type: in vivo, mouse
[7] = low gamma BERK, single dose 20 mg/kg intraperitoneally, three hrs. after infusion
[8] = BERK low gamma, 50 mg/kg intraperitoneal three times a week
[9] = low gamma BERK, daily oral dosing 100/mg per/kg for 10 days
[10] = BERK mice, post injection vs baseline, 10% top-load

O=c1c2cc(O)c(O)cc2oc2cc(O)c([C@@H]3O[C@H](CO)[C@@H](O)[C@H](O)[C@H]3O)c(O)c12 [mangiferine, reference compound]
therapeutic efficacy for SCD (vaso-occlusion) (BERK low gamma [1]; BERK low gamma): not seen

NC(=O)NO [hydroxy urea, reference compound]
expression of fetal Hb (BERK low gamma [1]; [7]): without any expression | systemic flow (BERK low gamma [1]; [7]): significant improvement | vaso-occlusion (BERK low gamma [1]; [7]): level close to that of medium gamma BERK

O=c1c(O)c(-c2ccc(O)c(O)c2)oc2cc(O)cc(O)c12 [quercetin, 2-(3,4-dihydroxyphenyl)-3,5,7-trihydroxy-4H-chromen-4-one]
influence on CBF (BERK mice [2]; [8]): very little influence | influence on CBF (BERK mice [2]; [9]): without any significant influence | influence on BOLD (BERK mice [3]; [9]): without any significant influence | toxicity to animals (BERK low gamma [4]; 50 mg/kg): not toxic | time of death after infusing (BERK low gamma [4]; 200 mg/kg): six to eight | therapeutic efficacy for SCD (vaso-occlusion) (BERK low gamma [1]; BERK low gamma): dose dependent | vaso-occlusion (BERK low gamma [1]; [8]): small attenuation | vaso-occlusion (BERK low gamma [1]; BERK low gamma, 200 mg/kg intraperitoneal, measured 3 hrs after infusion): nearly completely attenuated | improvement of systemic circulation (BERK low gamma [1]; [9]): 60 to 70%

EAF-PEG-Hb: extension arm facilitated hemoglobin molecule having 6 molecules of 3,000 mw polyethylene glycol (PEG) attached thereto
CBF (BERK mice [2]; [10]): drop in CBF; also recorded: decreased | CBF (BERK mice [2]; low gamma BERK mice, 6 gm % solution at 10% top load): normalize the CBF | presence in the plasma [5]: 0.3 gm/dl | BOLD-RHO (hypoxic stress, brain deoxy-Hb response to hyperoxia) (BERK mice [3]; [10]): No drop in brain deoxy-Hb was detected; also recorded: protected against the decrease in CBF | Volumetric flow rate / systemic (peripheral) tissue blood flow (BERK mice [6]; BERK / sickle transgenic mice, after 10% topload): still increased | Leukocyte adhesion in systemic post capillary venules (BERK mice [6]; sickle transgenic animals, systemic circulation): still reduced
